The text below walks through data of US7268126B2, “Polymorphic and amorphous forms of the phosphate salt of 8-fluoro-2-{4-[(methylamino)methyl]phenyl}-1,3,4,5-tetrahydro-6H-azepino[5,4,3-ce]indol-6-one” (Agouron Pharmaceuticals, Inc., priority 2004, dated 2007).

Molecules are shown by their SMILES. Like-named read-outs stand apart in the source and are kept apart here.

A short description of series [1]: physical and chemical storage stability of polymorphic forms. Particulars: for physically stable, duration: ambient condition.
For series [2] the following is noted: pH 5.4.
Setting [3] is: 40° C. under 75% relative humidity.

As a reminder, the Solubility is how much of the substance goes into solution per volume. A low value points to little dissolved substance. What is called aqueous solubility is the dissolved amount per volume that the medium holds.

For the compound `CNCc1ccc(-c2[nH]c3cc(F)cc4c3c2CCNC4=O)cc1.O=P(O)(O)O` [Form II, phosphate salt of 8-fluoro-2-{4-[(methylamino)methyl]phenyl}-1,3,4,5-tetrahydro-6H-azepino[5,4,3-cd]indol-6-one], the “conversion to Form III (Hydrate B)” value is listed as “overnight” in series [1] (25° C. under 90% relative humidity) and “after 1 week” in series [1] (setting [3]). Also, the “physically stable, duration” value in series [1] was “at least 3 months”. The Solubility reads like this: (pH 3) 460 µg/mL; (pH 4) 390 µg/mL; (pH 5) 370 µg/mL; (pH 6) 320 µg/mL; (pH 7) 250 µg/mL; (pH 8) 190 µg/mL. In series [2], the aqueous solubility stood at 3000 µg/mL.
On to `CNCc1ccc(-c2[nH]c3cc(F)cc4c3c2CCNC4=O)cc1.O=P(O)(O)O` [Form III, phosphate salt of 8-fluoro-2-{4-[(methylamino)methyl]phenyl}-1,3,4,5-tetrahydro-6H-azepino[5,4,3-cd]indol-6-one], for which the aqueous solubility in series [2] amounted to 2700 µg/mL.
The same measure, in the same setting: to `CNCc1ccc(-c2[nH]c3cc(F)cc4c3c2CCNC4=O)cc1.O=P(O)(O)O` [Form IV, phosphate salt of 8-fluoro-2-{4-[(methylamino)methyl]phenyl}-1,3,4,5-tetrahydro-6H-azepino[5,4,3-cd]indol-6-one] belongs 4500 µg/mL.
`CNCc1ccc(-c2[nH]c3cc(F)cc4c3c2CCNC4=O)cc1.O=P(O)(O)O` [Form I, phosphate salt of 8-fluoro-2-{4-[(methylamino)methyl]phenyl}-1,3,4,5-tetrahydro-6H-azepino[5,4,3-cd]indol-6-one]: the “conversion to Form III (Hydrate B)” value in series [1] (setting [3]) is recorded as “after one week”. Further, the “physically stable, duration” value in series [1] was “at least 3 months”. Also, in series [2], the aqueous solubility is 2800 µg/mL.
On to `CNCc1ccc(-c2[nH]c3cc(F)cc4c3c2CCNC4=O)cc1.O=P(O)(O)O` [Form V, phosphate salt of 8-fluoro-2-{4-[(methylamino)methyl]phenyl}-1,3,4,5-tetrahydro-6H-azepino[5,4,3-cd]indol-6-one], for which the “physically and chemically stable, duration” value in series [1] (room temperature) is reported as “at least 3 months”.
